In US9738634B2, “Heterocyclic amide compound and herbicide” (SYNGENTA PARTICIPATIONS AG, priority 2013, dated 2017):

Columns and labels:
Type in all cases: in vivo
barnyard grass [1] = assay: Test Example 1: weedkilling efficacy, preemergent weed treatment in the submerged state; A: barnyard grass; conditions: treatment dosage 252 g/ha
Procedure, shortened: (§1)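 Alluvial soil in Wagner pots flooded to 4 cm; barnyard grass, bulrush and oval-leafed pondweed seeds sown, then 2.5-leaf rice seedlings transplanted. Same day, emulsified compound diluted in water to set g/ha dosages and applied to water surface; greenhouse 25–30 °C, effect scored by criteria after 3 weeks.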

bulrush [2] = assay: Test Example 1: weedkilling efficacy, preemergent weed treatment in the submerged state; B: bulrush; conditions: treatment dosage 252 g/ha
Procedure, shortened: as §1

oval-leafed pondweed [3] = assay: Test Example 1: weedkilling efficacy, preemergent weed treatment in the submerged state; C: oval-leafed pondweed; conditions: treatment dosage 252 g/ha
Procedure, shortened: as §1

transplanted rice = assay: Test Example 1: preemergent weed treatment in the submerged state, effect on crop; a: transplanted rice; conditions: treatment dosage 252 g/ha
Procedure, shortened: as §1

barnyard grass [4] = assay: Test Example 2: weedkilling efficacy, growth period weed treatment in the submerged state; A: barnyard grass; conditions: treatment dosage 252 g/ha
Procedure, shortened: (§2)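 First, alluvial soil in pots is flooded to 4 cm and mixed seed is sown. Next, plants grow in a greenhouse at 25 to 30° C until the 1-2 leaf stage. Then diluted emulsion is applied onto the water surface at the given g/ha rate, and injury is assessed after 3 weeks.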

bulrush [5] = assay: Test Example 2: weedkilling efficacy, growth period weed treatment in the submerged state; B: bulrush; conditions: treatment dosage 252 g/ha
Procedure, shortened: as §2

oval-leafed pondweed [6] = assay: Test Example 2: weedkilling efficacy, growth period weed treatment in the submerged state; C: oval-leafed pondweed; conditions: treatment dosage 252 g/ha
Procedure, shortened: as §2

crabgrass [7] = assay: Test Example 3: weedkilling efficacy through soil treatment; D: crabgrass; conditions: treatment dosage 315 g/ha
Procedure, shortened: (§3)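 Crop and weed responses were judged three weeks after a uniform surface spray of the water-diluted emulsion at the given g/ha rate. Seeds sat beneath about 1.5 cm of sterilized diluvial soil, and boxes stood in a greenhouse at 25 to 30° C.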

green foxtail [8] = assay: Test Example 3: weedkilling efficacy through soil treatment; E: green foxtail; conditions: treatment dosage 315 g/ha
Procedure, shortened: as §3

wild oat [9] = assay: Test Example 3: weedkilling efficacy through soil treatment; G: wild oat; conditions: treatment dosage 315 g/ha
Procedure, shortened: as §3

black-grass [10] = assay: Test Example 3: weedkilling efficacy through soil treatment; H: black-grass; conditions: treatment dosage 315 g/ha
Procedure, shortened: as §3

Italian ryegrass [11] = assay: Test Example 3: weedkilling efficacy through soil treatment; I: Italian ryegrass; conditions: treatment dosage 315 g/ha
Procedure, shortened: as §3

Indian mallow [12] = assay: Test Example 3: weedkilling efficacy through soil treatment; K: Indian mallow; conditions: treatment dosage 315 g/ha
Procedure, shortened: as §3

redroot pigweed [13] = assay: Test Example 3: weedkilling efficacy through soil treatment; L: redroot pigweed; conditions: treatment dosage 315 g/ha
Procedure, shortened: as §3

fig-leafed goosefoot [14] = assay: Test Example 3: weedkilling efficacy through soil treatment; M: fig-leafed goosefoot; conditions: treatment dosage 315 g/ha
Procedure, shortened: as §3

chickweed [15] = assay: Test Example 3: weedkilling efficacy through soil treatment; N: chickweed; conditions: treatment dosage 315 g/ha
Procedure, shortened: as §3

birds-eye speedwell = assay: Test Example 3: weedkilling efficacy through soil treatment; p: birds-eye speedwell; conditions: treatment dosage 315 g/ha
Procedure, shortened: as §3

directly sown rice [16] = assay: Test Example 3: soil treatment, effect on crop; b: directly sown rice; conditions: treatment dosage 315 g/ha
Procedure, shortened: as §3

corn [17] = assay: Test Example 3: soil treatment, effect on crop; c: corn; conditions: treatment dosage 315 g/ha
Procedure, shortened: as §3

soybean [18] = assay: Test Example 3: soil treatment, effect on crop; d: soybean; conditions: treatment dosage 315 g/ha
Procedure, shortened: as §3

wheat [19] = assay: Test Example 3: soil treatment, effect on crop; e: wheat; conditions: treatment dosage 315 g/ha
Procedure, shortened: as §3

beet [20] = assay: Test Example 3: soil treatment, effect on crop; f: beet; conditions: treatment dosage 315 g/ha
Procedure, shortened: as §3

crabgrass [21] = assay: Test Example 4: weedkilling efficacy by foliar treatment; D: crabgrass; conditions: treatment dosage 315 g/ha
Procedure, shortened: (§4)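 Seeds are spot-sown into sterilized diluvial soil and covered with about 1.5 cm of soil. After 14 days' greenhouse growth at 25 to 30° C, plants are sprayed on stems and leaves with diluted emulsion at the stated g/ha rate, then scored at 3 weeks.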

green foxtail [22] = assay: Test Example 4: weedkilling efficacy by foliar treatment; E: green foxtail; conditions: treatment dosage 315 g/ha
Procedure, shortened: as §4

wild oat [23] = assay: Test Example 4: weedkilling efficacy by foliar treatment; G: wild oat; conditions: treatment dosage 315 g/ha
Description: Testing of Weedkilling Efficacy by Foliar Treatment
Sterilized diluvial soil was introduced into 21 cm long, 13 cm wide, 7 cm deep plastic boxes, and seeds of crabgrass, green foxtail, barnyard grass, wild oat, black-grass, Italian ryegrass, common wind-grass, Indian mallow, redroot pigweed, fig-leafed goosefoot, chickweed, catchweed, birds-eye speedwell, corn, soybean, rice, wheat, beet and rapeseed were each spot-sown, and covered with about 1.5 cm of soil, then the plants were grown in a greenhouse at 25 to 30° C.
After they had grown for 14 days, emulsions of compounds of the present invention prepared according to compounding example 2 were diluted with water to give the specified dosages, and applied uniformly onto the stem and leaf parts with a small sprayer. 3 weeks after the pesticide treatment the effect on each type of plant was investigated on the basis of the assessment criteria of test example 1.
A: barnyard grass, B: bulrush, C: oval-leafed pondweed, D: crabgrass, E: green foxtail, F: barnyard grass, G: wild oat, H: black-grass, I: Italian ryegrass, J: common wind-grass, K: Indian mallow, L: redroot pigweed, M: fig-leafed goosefoot, N: chickweed, O: catchweed, p: birds-eye speedwell, a: transplanted rice, b: directly sown rice, c: corn, d: soybean, e: wheat, f: beet, g: rapeseed
Further, pesticide dosage (g/ha) indicates the concentration regulated such that treatment was with only the stated number of grams (g), when calculated per hectare (ha).

black-grass [24] = assay: Test Example 4: weedkilling efficacy by foliar treatment; H: black-grass; conditions: treatment dosage 315 g/ha
Procedure, shortened: as §4

Italian ryegrass [25] = assay: Test Example 4: weedkilling efficacy by foliar treatment; I: Italian ryegrass; conditions: treatment dosage 315 g/ha
Procedure, shortened: as §4

Indian mallow [26] = assay: Test Example 4: weedkilling efficacy by foliar treatment; K: Indian mallow; conditions: treatment dosage 315 g/ha
Procedure, shortened: as §4

redroot pigweed [27] = assay: Test Example 4: weedkilling efficacy by foliar treatment; L: redroot pigweed; conditions: treatment dosage 315 g/ha
Procedure, shortened: as §4

fig-leafed goosefoot [28] = assay: Test Example 4: weedkilling efficacy by foliar treatment; M: fig-leafed goosefoot; conditions: treatment dosage 315 g/ha
Procedure, shortened: as §4

chickweed [29] = assay: Test Example 4: weedkilling efficacy by foliar treatment; N: chickweed; conditions: treatment dosage 315 g/ha
Procedure, shortened: as §4

catchweed = assay: Test Example 4: weedkilling efficacy by foliar treatment; O: catchweed; conditions: treatment dosage 315 g/ha
Procedure, shortened: as §4

directly sown rice [30] = assay: Test Example 4: foliar treatment, effect on crop; b: directly sown rice; conditions: treatment dosage 315 g/ha
Procedure, shortened: as §4

corn [31] = assay: Test Example 4: foliar treatment, effect on crop; c: corn; conditions: treatment dosage 315 g/ha
Procedure, shortened: as §4

soybean [32] = assay: Test Example 4: foliar treatment, effect on crop; d: soybean; conditions: treatment dosage 315 g/ha
Procedure, shortened: as §4

wheat [33] = assay: Test Example 4: foliar treatment, effect on crop; e: wheat; conditions: treatment dosage 315 g/ha
Procedure, shortened: as §4

beet [34] = assay: Test Example 4: foliar treatment, effect on crop; f: beet; conditions: treatment dosage 315 g/ha
Procedure, shortened: as §4

CC1=C(c2ccccc2)C(=O)N(C(C)(C)C(=O)Nc2cccc(F)n2)CO1 [B-2-27]
A (barnyard grass) weedkilling efficacy grade (barnyard grass [1]): 5 (weed kill ratio 90% or more, (practically complete withering)) | B (bulrush) weedkilling efficacy grade (bulrush [2]): 5 (weed kill ratio 90% or more, (practically complete withering)) | C (oval-leafed pondweed) weedkilling efficacy grade (oval-leafed pondweed [3]): 5 (weed kill ratio 90% or more, (practically complete withering)) | a (transplanted rice) effect on crop grade (transplanted rice): 0 (weed kill ratio 5% or less (practically no effect)) | A (barnyard grass) weedkilling efficacy grade (barnyard grass [4]): 4 (weed kill ratio 70% or more, less than 90%) | B (bulrush) weedkilling efficacy grade (bulrush [5]): 5 (weed kill ratio 90% or more, (practically complete withering)) | C (oval-leafed pondweed) weedkilling efficacy grade (oval-leafed pondweed [6]): 5 (weed kill ratio 90% or more, (practically complete withering)) | D (crabgrass) weedkilling efficacy grade (crabgrass [7]): 5 (weed kill ratio 90% or more, (practically complete withering)) | E (green foxtail) weedkilling efficacy grade (green foxtail [8]): 5 (weed kill ratio 90% or more, (practically complete withering)) | G (wild oat) weedkilling efficacy grade (wild oat [9]): 5 (weed kill ratio 90% or more, (practically complete withering)) | H (black-grass) weedkilling efficacy grade (black-grass [10]): 5 (weed kill ratio 90% or more, (practically complete withering)) | I (Italian ryegrass) weedkilling efficacy grade (Italian ryegrass [11]): 5 (weed kill ratio 90% or more, (practically complete withering)) | K (Indian mallow) weedkilling efficacy grade (Indian mallow [12]): 5 (weed kill ratio 90% or more, (practically complete withering)) | L (redroot pigweed) weedkilling efficacy grade (redroot pigweed [13]): 5 (weed kill ratio 90% or more, (practically complete withering)) | M (fig-leafed goosefoot) weedkilling efficacy grade (fig-leafed goosefoot [14]): 5 (weed kill ratio 90% or more, (practically complete withering)) | N (chickweed) weedkilling efficacy grade (chickweed [15]): 5 (weed kill ratio 90% or more, (practically complete withering)) | P (birds-eye speedwell) weedkilling efficacy grade (birds-eye speedwell): 5 (weed kill ratio 90% or more, (practically complete withering)) | b (directly sown rice) effect on crop grade (directly sown rice [16]): 5 (weed kill ratio 90% or more, (practically complete withering)) | c (corn) effect on crop grade (corn [17]): 4 (weed kill ratio 70% or more, less than 90%) | d (soybean) effect on crop grade (soybean [18]): 5 (weed kill ratio 90% or more, (practically complete withering)) | e (wheat) effect on crop grade (wheat [19]): 5 (weed kill ratio 90% or more, (practically complete withering)) | f (beet) effect on crop grade (beet [20]): 4 (weed kill ratio 70% or more, less than 90%) | D (crabgrass) weedkilling efficacy grade (crabgrass [21]): 5 (weed kill ratio 90% or more, (practically complete withering)) | E (green foxtail) weedkilling efficacy grade (green foxtail [22]): 5 (weed kill ratio 90% or more, (practically complete withering)) | G (wild oat) weedkilling efficacy grade (wild oat [23]): 5 (weed kill ratio 90% or more, (practically complete withering)) | H (black-grass) weedkilling efficacy grade (black-grass [24]): 5 (weed kill ratio 90% or more, (practically complete withering)) | I (Italian ryegrass) weedkilling efficacy grade (Italian ryegrass [25]): 5 (weed kill ratio 90% or more, (practically complete withering)) | K (Indian mallow) weedkilling efficacy grade (Indian mallow [26]): 4 (weed kill ratio 70% or more, less than 90%) | L (redroot pigweed) weedkilling efficacy grade (redroot pigweed [27]): 4 (weed kill ratio 70% or more, less than 90%) | M (fig-leafed goosefoot) weedkilling efficacy grade (fig-leafed goosefoot [28]): 3 (weed kill ratio 40% or more, less than 70%) | N (chickweed) weedkilling efficacy grade (chickweed [29]): 4 (weed kill ratio 70% or more, less than 90%) | O (catchweed) weedkilling efficacy grade (catchweed): 4 (weed kill ratio 70% or more, less than 90%) | b (directly sown rice) effect on crop grade (directly sown rice [30]): 5 (weed kill ratio 90% or more, (practically complete withering)) | c (corn) effect on crop grade (corn [31]): 4 (weed kill ratio 70% or more, less than 90%) | d (soybean) effect on crop grade (soybean [32]): 4 (weed kill ratio 70% or more, less than 90%) | e (wheat) effect on crop grade (wheat [33]): 4 (weed kill ratio 70% or more, less than 90%) | f (beet) effect on crop grade (beet [34]): 4 (weed kill ratio 70% or more, less than 90%)
